Earlier results in patent US8748570B2, “Insulin analogues” (priority 2010, dated 2014).
Read-outs that look alike come from different tables or passages of the source.

Columns and labels:
[1] = system: cultured human lymphocytes
[2] = system: isolated rat adipocytes
[3] = biological target: IGF-IR (Homo sapiens, UniProt P08069)

Substance: A7, B7-(2,7-diaminosuberoyl]-des-(B26-B30)-insulin B25-amide [dicarba-A7-B7-insulin]
- Relative binding affinity [1]: 0.1 % of human insulin
- EC50 ([2]; lipogenesis, read-out: ED50 (the source's name)): 4.8 nM
- relative potency compared to human insulin ([2]; on a molar basis): 0.66%
- relative potency compared to human insulin ([2]; on a weight basis): 0.72%

Substance: Glargine insulin: long-acting insulin: two arginines added to the B-chain C-terminus, glycine at A21
- IGF-IR binding [3]: enhanced
- duration of activity (in vivo): 24 h
- peak time of effect (in vivo): no peak effect

Substance: detemir: long-acting insulin with a fatty acid chain on the ε-amino group of LysB29
- in vivo potency: reduced
